Test results taken from patent publication US20260232658A1, “AZETIDINYL BENZOXAZOLE COMPOUNDS AND THEIR USE AS MER AND AXL INHIBITORS” (DONG-A ST CO., LTD., priority 2022, published 2026).
pIC50: −log10 of the molar value.

Experiments:
[1] = target: T1, human MER (528-end) (Homo sapiens, UniProt Q12866); assay: HTRF kinase activity biochemical assay, MER; settings: recombinant kinase, 10 uM ATP, 30 minutes pre-incubation; read-out: HTRF MERTK IC50;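 note: phosphorylation of a biotin-tagged tyrosine kinase substrate detected by Eu3+-cryptate antibody and streptavidin-XL665 time-resolved fluorescence, read after 1 h at room temperature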
T1 construct: human MER (528-end); purchased Carnabio, Japan
T1 sequence (Q12866 528-999 limits assumed): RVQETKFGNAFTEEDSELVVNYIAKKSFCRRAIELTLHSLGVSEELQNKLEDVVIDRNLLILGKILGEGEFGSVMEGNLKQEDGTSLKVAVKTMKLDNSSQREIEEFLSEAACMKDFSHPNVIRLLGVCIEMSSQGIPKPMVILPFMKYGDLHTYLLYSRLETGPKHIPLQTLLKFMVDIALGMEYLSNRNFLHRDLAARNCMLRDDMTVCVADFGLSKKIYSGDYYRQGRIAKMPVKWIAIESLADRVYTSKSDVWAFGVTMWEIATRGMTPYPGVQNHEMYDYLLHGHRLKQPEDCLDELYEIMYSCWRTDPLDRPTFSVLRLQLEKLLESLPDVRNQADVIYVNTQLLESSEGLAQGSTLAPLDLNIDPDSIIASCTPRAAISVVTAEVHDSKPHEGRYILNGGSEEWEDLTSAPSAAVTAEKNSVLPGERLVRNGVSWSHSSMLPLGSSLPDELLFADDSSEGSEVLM

[2] = target: T2, human AXL (473-end) (Homo sapiens, UniProt P30530); assay: HTRF kinase activity biochemical assay, AXL; settings: recombinant kinase, 10 uM ATP, 30 minutes pre-incubation; read-out: HTRF AXL IC50;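 note: phosphorylation of a biotinylated tyrosine kinase substrate detected via Eu3+-cryptate anti-TK antibody and streptavidin-XL665, fluorescence read after a 1 h incubation at room temperature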
T2 construct: human AXL (473-end); purchased SignalChem, Canada
T2 sequence (P30530 473-894 limits assumed): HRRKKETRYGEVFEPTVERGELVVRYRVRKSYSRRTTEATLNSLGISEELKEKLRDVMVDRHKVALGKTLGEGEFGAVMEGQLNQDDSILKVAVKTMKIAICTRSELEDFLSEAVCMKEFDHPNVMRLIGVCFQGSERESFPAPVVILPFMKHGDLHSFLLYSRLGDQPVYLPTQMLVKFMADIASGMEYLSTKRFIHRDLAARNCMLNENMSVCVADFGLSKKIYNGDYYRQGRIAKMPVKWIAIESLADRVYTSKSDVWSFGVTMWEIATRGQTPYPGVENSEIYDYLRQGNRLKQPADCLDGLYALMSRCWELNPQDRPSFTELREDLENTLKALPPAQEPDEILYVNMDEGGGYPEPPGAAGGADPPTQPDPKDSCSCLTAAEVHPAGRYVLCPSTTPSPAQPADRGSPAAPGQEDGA

[3] = target: T3, TYRO3 (455-end) (Homo sapiens, UniProt Q06418); assay: HTRF kinase activity biochemical assay, TYRO3; settings: recombinant kinase, 10 uM ATP, 30 minutes pre-incubation; read-out: HTRF TYRO IC50;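 note: biotinylated tyrosine kinase substrate phosphorylation detected via streptavidin-XL665 and Eu3+-cryptate anti-phospho antibody time-resolved fluorescence, read after 1 h detection at room temperature, 384-well format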
T3 construct: TYRO3 (455-end); purchased SignalChem, Canada
T3 sequence (Q06418 455-890 limits assumed): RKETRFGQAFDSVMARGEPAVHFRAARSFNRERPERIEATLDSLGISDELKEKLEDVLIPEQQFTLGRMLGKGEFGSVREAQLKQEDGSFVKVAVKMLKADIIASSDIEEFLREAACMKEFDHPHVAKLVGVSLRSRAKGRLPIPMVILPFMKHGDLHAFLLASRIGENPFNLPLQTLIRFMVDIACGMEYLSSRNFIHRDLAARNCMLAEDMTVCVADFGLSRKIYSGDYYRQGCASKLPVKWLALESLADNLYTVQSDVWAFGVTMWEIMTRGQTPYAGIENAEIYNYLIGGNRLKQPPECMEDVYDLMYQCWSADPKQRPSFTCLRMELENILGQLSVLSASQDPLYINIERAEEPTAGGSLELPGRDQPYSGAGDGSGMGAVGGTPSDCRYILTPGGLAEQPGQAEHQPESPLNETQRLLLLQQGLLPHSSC

SMILES	pIC50 [1]	pIC50 [2]	pIC50 [3]
Cc1nnc(COc2ccc3nc(N4CC(c5cnc(Nc6cnn(C)c6)c(C(N)=O)n5)C4)oc3c2)o1 [Example 86, 6-(1-{6-[(5-methyl-1,3,4-oxadiazol-2-yl)methoxy]-1,3-benzoxazol-2-yl}azetidin-3-yl)-3-[(1-methyl-1H-pyrazol-4-yl)amino]pyrazine-2-carboxamide]	8.30	7.96	7.20
Cc1ncc(-c2ccc3nc(N4CC(c5cnc(Nc6cnn(C)c6)c(C(N)=O)n5)C4)oc3c2)s1 [Example 99, 3-[(1-methyl-1H-pyrazol-4-yl)amino]-6-{1-[6-(2-methyl-1,3-thiazol-5-yl)-1,3-benzoxazol-2-yl]azetidin-3-yl}pyrazine-2-carboxamide]	> 9.00	8.80	7.62
COCCn1cc(Nc2ncc(C3CN(c4nc5ccccc5o4)C3)nc2C(N)=O)cn1 [Example 29, 6-[1-(1,3-benzoxazol-2-yl)azetidin-3-yl]-3-{[1-(2-methoxyethyl)-1H-pyrazol-4-yl]amino}pyrazine-2-carboxamide]	8.30	8.00	6.47
Cn1cc(Nc2ncc(C3CN(c4nc5ccc(OCC(=O)C6CC6)cc5o4)C3)nc2C(N)=O)cn1 [Example 87, 6-{1-[6-(2-cyclopropyl-2-oxoethoxy)-1,3-benzoxazol-2-yl]azetidin-3-yl}-3-[(1-methyl-1H-pyrazol-4-yl)amino]pyrazine-2-carboxamide]	9.00	8.30	6.48
Cn1cc(Nc2ncc(C3CN(c4nc5ccc(OCC(N)=O)cc5o4)C3)nc2C(N)=O)cn1 [Example 37, 6-{1-[6-(2-amino-2-oxoethoxy)-1,3-benzoxazol-2-yl]azetidin-3-yl}-3-[(1-methyl-1H-pyrazol-4-yl)amino]pyrazine-2-carboxamide]	8.00	7.54	5.67
C=CCOP(=O)(OCC=C)OC(C)(C)CCOc1ccc2nc(N3CC(c4cnc(Nc5cnn(C)c5)c(C(N)=O)n4)C3)oc2c1 [Example 77A, 4-{[2-(3-f{6-carbamoyl-5-[(1-methyl-1H-pyrazol-4-yl)amino]pyrazin-2-yl}azetidin-1-yl)-1,3-benzoxazol-6-yl]oxy}-2-methylbutan-2-yl diprop-2-en-1-yl phosphate]	8.70	8.22	6.60
Cn1cc(Nc2ncc(C3CN(c4nc5ccc(CCC(=O)N6CCCC6)cc5o4)C3)nc2C(N)=O)cn1 [Example 63, 3-[(1-methyl-1H-pyrazol-4-yl)amino]-6-(1-{6-[3-oxo-3-(pyrrolidin-1-yl)propyl]-1,3-benzoxazol-2-yl}azetidin-3-yl)pyrazine-2-carboxamide]	7.96	7.80	5.37
Cn1cc(Nc2ncc(C3CN(c4nc5ccc(CCC6(O)COC6)cc5o4)C3)nc2C(N)=O)cn1 [Example 45, 6-(1-{6-[2-(3-hydroxyoxetan-3-yl)ethyl]-1,3-benzoxazol-2-yl}azetidin-3-yl)-3-[(1-methyl-1H-pyrazol-4-yl)amino]pyrazine-2-carboxamide]	8.52	8.05	6.21
CCOC(=O)Cn1cc(COc2ccc3nc(N4CC(c5cnc(Nc6cnn(C)c6)c(C(N)=O)n5)C4)oc3c2)cn1 [Example 104C, ethyl [4-({[2-(3-{6-carbamoyl-5-[(1-methyl-1H-pyrazol-4-yl)amino]pyrazin-2-yl}azetidin-1-yl)-1,3-benzoxazol-6-yl]oxy}methyl)-1H-pyrazol-1-yl]acetate]	8.40	7.57	6.21
Cn1cc(Nc2ncc(C3CN(c4nc5ccc(OCC(C)(C)C#N)cc5o4)C3)nc2C(N)=O)cn1 [Example 107, 6-{1-[6-(2-cyano-2-methylpropoxy)-1,3-benzoxazol-2-yl]azetidin-3-yl}-3-[(1-methyl-1H-pyrazol-4-yl)amino]pyrazine-2-carboxamide]	> 9.00	8.82	7.34
Cn1cc(Nc2ncc(C3CN(c4nc5ccc(OCC(O)CO)cc5o4)C3)nc2C(N)=O)cn1 (stereo not drawn) [Example 43, 6-{1-[6-(2,3-dihydroxypropoxy)-1,3-benzoxazol-2-yl]azetidin-3-yl}-3-[(1-methyl-1H-pyrazol-4-yl)amino]pyrazine-2-carboxamide]	8.05	7.60	5.67
Cn1cc(Nc2ncc(C3CN(c4nc5ccc(-c6ccc(O)cc6)cc5o4)C3)nc2C(N)=O)cn1 [Example 88, 6-{1-[6-(4-hydroxyphenyl)-1,3-benzoxazol-2-yl]azetidin-3-yl}-3-[(1-methyl-1H-pyrazol-4-yl)amino]pyrazine-2-carboxamide]	> 9.00	8.52	7.29
CNC(=O)Cc1ccc2nc(N3CC(c4cnc(Nc5cnn(C)c5)c(C(N)=O)n4)C3)oc2c1 [Example 50, 6-(1-{6-[2-(methylamino)-2-oxoethyl]-1,3-benzoxazol-2-yl}azetidin-3-yl)-3-[(1-methyl-1H-pyrazol-4-yl)amino]pyrazine-2-carboxamide]	8.05	7.80	5.45
Cn1cc(Nc2ncc(C3CN(c4nc5ccc(C(=O)O)cc5o4)C3)nc2C(N)=O)cn1 [Example 18A, 2-(3-f{6-carbamoyl-5-[(1-methyl-1H-pyrazol-4-yl)amino]pyrazin-2-yl}azetidin-1-yl)-1,3-benzoxazole-6-carboxylic acid]	5.43	5.23	< 4.90
Cn1cc(Nc2ncc(C3CN(c4nc5ccc(OCC(CO)CO)cc5o4)C3)nc2C(N)=O)cn1 [Example 51, 6-(1-{6-[3-hydroxy-2-(hydroxymethyl)propoxy]-1,3-benzoxazol-2-yl}azetidin-3-yl)-3-[(1-methyl-1H-pyrazol-4-yl)amino]pyrazine-2-carboxamide]	8.52	8.22	5.76
COC(=O)c1ccc2nc(N3CC(c4cnc(Nc5cnn(C)c5)c(C(N)=O)n4)C3)oc2c1 [Example 13, methyl 2-(3-{6-carbamoyl-5-[(1-methyl-1H-pyrazol-4-yl)amino]pyrazin-2-yl}azetidin-1-yl)-1,3-benzoxazole-6-carboxylate]	8.70	8.52	6.92
Cn1cc(Nc2ncc(C3CN(c4nc5ccc(OCC(C)(C)OP(=O)(O)O)cc5o4)C3)nc2C(N)=O)cn1 [Example 112, 1-{[2-(3-{6-carbamoyl-5-[(1-methyl-1H-pyrazol-4-yl)amino]pyrazin-2-yl}azetidin-1-yl)-1,3-benzoxazol-6-yl]oxy}-2-methylpropan-2-yl dihydrogen phosphate]	7.28	7.16	5.23
COCCCc1ccc2nc(N3CC(c4cnc(Nc5cnn(C)c5)c(C(N)=O)n4)C3)oc2c1 [Example 33, 6-{1-[6-(3-methoxypropyl)-1,3-benzoxazol-2-yl]azetidin-3-yl}-3-[(1-methyl-1H-pyrazol-4-yl)amino]pyrazine-2-carboxamide]	9.00	8.70	6.89
Cn1cc(Nc2ncc(C3CN(c4nc5ccc(OCC6CC6)cc5o4)C3)nc2C(N)=O)cn1 [Example 23, 6-{1-[6-(cyclopropylmethoxy)-1,3-benzoxazol-2-yl]azetidin-3-yl}-3-[(1-methyl-1H-pyrazol-4-yl)amino]pyrazine-2-carboxamide]	> 9.00	> 9.00	8.10
